Target: Vasopressin V2 receptor (Sus scrofa, UniProt P32307)
Assay: Tested for the inhibition to V2 subtype receptor using [3H]- (VS2) as radioligand at 3 nM and arginine-vasopressin at 2 uM in LLCPKI cells
Assay type: cell-based

Vasopressin V2 receptor, sequence (P32307 whole entry): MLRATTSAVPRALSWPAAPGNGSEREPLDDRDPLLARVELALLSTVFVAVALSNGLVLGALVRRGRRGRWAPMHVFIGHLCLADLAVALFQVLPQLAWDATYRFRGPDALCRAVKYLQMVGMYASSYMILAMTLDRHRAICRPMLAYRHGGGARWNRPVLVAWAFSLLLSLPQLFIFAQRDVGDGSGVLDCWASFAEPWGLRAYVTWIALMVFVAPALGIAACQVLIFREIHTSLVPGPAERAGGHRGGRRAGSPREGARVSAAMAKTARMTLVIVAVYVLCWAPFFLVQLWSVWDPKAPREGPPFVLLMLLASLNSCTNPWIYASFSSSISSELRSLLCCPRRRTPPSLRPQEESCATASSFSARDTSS

IC50: 9.5 nM
Structure (SMILES): NC(=O)CC[C@@H]1NC(=O)[C@H](Cc2ccccc2)NC(=O)[C@H](Cc2ccc(O)cc2)NC(=O)[C@@H](N)CSSSC[C@@H](C(=O)N2CCC[C@H]2C(=O)N[C@@H](CCCN=C(N)N)C(=O)NCC(N)=O)NC(=O)[C@H](CC(N)=O)NC1=O

Reference: ChEMBL document CHEMBL1129881 (Bioorg Med Chem Lett, 1997)
